Data published in US4238472A, “Radioimmunoassay for chlorinated dibenzo-p-dioxins” (priority 1978, dated 1980).

Key:
[1] = tested on: guinea pig; settings: cited from earlier work
[2] = Determination of 2,3,7,8-TCDD in monkey tissue by gas chromatography with electron capture detector; type: in vivo, Rhesus Monkeys (Macaca muletta)
Source text: (§1) Using spiked, sandy soil samples, the inventors were able to detect 0.7 picomole of 2,3,7,8-TCDD using "Cutsum" and either antiserum. With "Triton X-305" replacing the "Cutscum", as little as 0.08 picomole of 2,3,7,8-TCDDcould be detected. These levels of sensitivity required that a dilution of antiserum (usually about 1:9000) be used that would bind 33% of the ^125 I-labeled hapten. To test the applicability of this assay to tissue samples, the inventors obtained liver and adipose samples from monkeys that had been used in a toxicity study involving 2,3,7,8-TCDD [as described by E. E.McConnell et al in "Toxicity of 2,3,7,8-tetrachlorodibenzo-p-dioxin in Rhesus Monkeys (Macaca muletta) Following a Single Oral Dose", appearing in Toxicol. Appl. Pharmacol. 43/1,175-187(1978)]. Sample size ranged from 3 to 50 mg of tissue for the radioimmunoassay, while 200 mg samples were used for comparison assays by gas chromatography with either negative chemical ionization mass spectrometry [as described by J. R. Hass et al in "Determination of Polychlorinated Dibenzo-p-Dioxins in Biological Samples by Negative Chemical Ionization Mass Spectrometry", appearing in Anal. Chem. 50/11, 1471-1479 (1978)], or an electron capture detector as measuring device.
(§2) ^a Monkeys 373 and 374 were controls and dosed orally with corn oil
alone. Monkeys 380 and 391 were experimental and received a single oral
dose of 70 μg/kg or 350 μg/kg TCDD in corn oil, respectively.
GCEC = Gas chromatography with electron capture detector.

[3] = Determination of 2,3,7,8-TCDD in monkey tissue by radioimmunoassay; type: in vivo, Rhesus Monkeys (Macaca muletta); settings: antiserum F12, "Cutscum"
Description: Blend 10 g of tissue in 200 ml of chloroform:methanol, 2:1 (v/v). Filter with suction through glass fiber filter paper (Reeve Angel grade 934AH or equivalent). Return the filter paper and cake to the blender jar and blend with 100 ml of chloroform:methanol, 2:1 (v/v). Filter as above ad combine filtrates. Add 52 ml of 1.2% aqueous KCl, mix well, let phases clear, and collect the lower phase in a 500 ml round bottom flask. Evaporate just to dryness at 40° using a rotary evaporator and water aspirator. This is a modification of the method of Folch et al [J.Biol.Chem.,236,497 (1957)].
Grind together 8 g of anhydrous sodium sulfate per gram of adipose, using a mortar and pestle. Extract the resulting powder with chloroform in a Soxhlet extractor, allowing at least 8 cycles.
Leach the lipid residue from 10 g of liver, 100 ml of blood or 1 g of adipose into 15 ml of CCl4. Partition against 15 ml of con.H2 SO4. Centrifuge at 2000 rpm for 30 minutes. Remove as much of the CCl4 layer as possible and record the volume recovered. Pass the CCl4 solution through anhydrous Na2 CO3 in a glass wool-plugged funnel, rinising the Na2 CO3 with 2 ml of fresh CCl4. Concentrate the filtrate just to dryness on a rotary evaporator at 40°. Leach the residue into 1.5 ml of n-hexane:methylene chloride, 97:3 (v/v).
The assay buffer (hereinafter referred to as "PBS") contained, per liter, 20 mmol of potassium phosphate, 140 mmol of NaCl, and 200 mg of sodium azide. The pH was adjusted to 7.3 with NaOH. Antiserum was diluted with PBS also containing 0.1% bovine gamma globulin and 0.02% rabbit gamma globulin (w/v). Each assay tube from procedure G above received 0.2 ml of PBS, after which the tubes were held in the sonicator for 40 minutes and then cooled to room temperature. Appropriately diluted antiserum or, as control, antiserum diluant was added (0.2 ml) and, after vortex-mixing, the tubes were incubated for 40 minutes at 37°. 14000 disintegrations per minute (hereafter referred to as "DPM") or 7000 counts per minute (hereinafter referred to as "CPM", which equals DPM×counting efficiency) of [^125 I]-iodovaleramide derivative of trichlorodibenzo-p-dioxin in PBS containing 1% "Cutscum" were then added to each tube (approximately 10 μl), vortex mixed, and the tubes incubated for 1 hour at 37° followed by an additional 65 hours of incubation at 4°. […]
Using spiked, sandy soil samples, the inventors were able to detect 0.7 picomole of 2,3,7,8-TCDD using "Cutsum" and either antiserum. With "Triton X-305" replacing the "Cutscum", as little as 0.08 picomole of 2,3,7,8-TCDDcould be detected. […]

[4] = Determination of 2,3,7,8-TCDD in monkey tissue by gas chromatography with negative ion mass spectrometry; type: in vivo, Rhesus Monkeys (Macaca muletta)
Source text: as §1, §2
alone. Monkeys 380 and 391 were experimental and received a single oral […]

[5] = tested on: antiserum F-12; assay: Specificity / cross reactivity of the radioimmunoassay, antiserum F-12; type: binding, rabbit
Source text: (§3) Since TCDD itself has no chemically reactive functional groups, a derivative was synthesized that retained most of the structural features of TCDD but with the addition of a reactive site. This derivative was coupled to an immunogenic protein carrier, such as bovine serum albumin, rabbit serum albumin, etc., so that animals would respond to it by producing an antiserum containing antibodies. A second compound was synthesized, still structurally similar to TCDD so that it would bind to the antibodies, but capable of being labeled with ^125 I for detectability at the picogram level. An amount of antiserum capable of binding about 20 pg of ^125 I-labeled dioxin derivative (hapten) is preincubated with the detergent emulsion of the sample extract (possibly containing TCDD). Then the mixture is incubated with the ^125 I-labeled derivative long enough for equilibrium binding to occur and form the hapten-antibody complex. A second antibody, namely, goat antibodies against rabbit gamma-globulin (i.e., goat anti-rabbit γ-globulin) are then added to precipitate the antibody ^125 I-labeled dioxin complex, and the amount of ^125 I in the precipitate is determined. The extent to which preincubation with the test material inhibits or decreases the amount of ^125 I precipitated relative to the amount precipitated in the absence of test material is a measure of the amount of chlorodibenzodioxin in the test sample.
(§4) Radioimmunoassay of small molecules requires some means of separating free hapten from antibody-bound hapten. The procedure used in the present invention, chosen because of its compatibility with detergent-solubilized hapten, involved precipitating the antibody-hapten complex with a second antibody, namely, goat antibodies against rabbit gamma-globulin. In this assay chlorodibenzodioxin from the environmental sample completes with the ^125 I-labeled hapten for binding to the antibody. Thus, the decrease in precipitation of radioactivity is a measure of the amount of (unlabeled) hapten in the test sample.
(§5) The assay buffer (hereinafter referred to as "PBS") contained, per liter, 20 mmol of potassium phosphate, 140 mmol of NaCl, and 200 mg of sodium azide. The pH was adjusted to 7.3 with NaOH. Antiserum was diluted with PBS also containing 0.1% bovine gamma globulin and 0.02% rabbit gamma globulin (w/v). Each assay tube from procedure G above received 0.2 ml of PBS, after which the tubes were held in the sonicator for 40 minutes and then cooled to room temperature. Appropriately diluted antiserum or, as control, antiserum diluant was added (0.2 ml) and, after vortex-mixing, the tubes were incubated for 40 minutes at 37°. 14000 disintegrations per minute (hereafter referred to as "DPM") or 7000 counts per minute (hereinafter referred to as "CPM", which equals DPM×counting efficiency) of [^125 I]-iodovaleramide derivative of trichlorodibenzo-p-dioxin in PBS containing 1% "Cutscum" were then added to each tube (approximately 10 μl), vortex mixed, and the tubes incubated for 1 hour at 37° followed by an additional 65 hours of incubation at 4°. Each tube next received 1.24 units of goat anti-rabbit gamma globulin in 0.2 ml of PBS containing 0.05 mM ethylenediamine tetracetic acid (hereinafter referred to as "EDTA"), was vortex mixed, and incubated for 5 hours at 4°. The tubes were centrifuged at 500×g for 20 minutes at 4°. The supernates were poured off and the tubes allowed to drain into Whatman #3 MM paper for 10 minutes. The precipitate or pellets obtained were then radioassayed for ^125 I, with 10 minute count cycles.
(§6) Standard curves were prepared using sequential two-fold dilutions of TCDD or other test compounds in benzene and evaporating the solvent as described above. Both control (blank) and TCDD-spiked tissues were extracted and processed as described above to determine general interference and recoveries. All samples were run in triplicate. […]

[6] = tested on: antiserum GC-5; assay: Cross reactivity in chlorinated DBD radioimmunoassay, antiserum GC-5; type: binding, rabbit
Source text: as §3, §4, §5, §6

[7] = in vivo; cited from earlier work
[8] = tested on: antiserum F-12; assay: Specificity / cross reactivity of the radioimmunoassay, antiserum F-12; type: binding, rabbit; settings: incubation times between 2 and 65 hours; "Cutscum"
[9] = monkey 380, adipose, single oral dose 70 μg/kg
[10] = monkey 380, liver, single oral dose 70 μg/kg
[11] = monkey 391, adipose, single oral dose 350 μg/kg
[12] = monkey 391, liver, single oral dose 350 μg/kg

SMILES | acute oral LD50 [1] | TCDD in tissue, GC-EC [2, 9] [ppb] | TCDD in tissue, GC-EC [2, 10] [ppb] | TCDD in tissue, GC-EC [2, 11] [ppb] | TCDD in tissue, GC-EC [2, 12] [ppb] | TCDD in tissue, RIA [3, 9] [ppb] | TCDD in tissue, RIA [3, 10] [ppb] | TCDD in tissue, RIA [3, 11] [ppb] | TCDD in tissue, RIA [3, 12] [ppb] | TCDD in tissue, GM-MS [4, 9] [ppb] | TCDD in tissue, GM-MS [4, 11] [ppb] | reactivity with F-12 (2,3,7,8-tetrachlorodibenzo-p-dioxin v 2,3,7,8-tetrachlorodibenzofuran) [5] | Cross Reactivity, Antiserum F-12: 100 × (inhibition of 125I binding by 4 pmole of test compound)/(inhibition by 4 pmole of 2,3,7,8-TCDD) [5] [%] | binding by the antibodies in GC-5 [6] | Cross Reactivity, Antiserum GC-5: 100 × (inhibition of 125I binding by 4 pmole of test compound)/(inhibition by 4 pmole of 2,3,7,8-TCDD) [6] [%] | maximum inhibition of binding of 125I-labeled hapten ([6]; GC-5 diluted such that 33% of the label was bound in the absence of competitors) | toxicity relative to TCDD [7] | ratio of inhibition by 5 ng of 2,3,7,8-DBF to that of 2,3,7,8-DBD [8]
Clc1cc2c(cc1Cl)Oc1cc(Cl)c(Cl)cc1O2 [2,3,7,8-TCDD, 2,3,7,8-tetrachlorodibenzo-p-dioxin] | less than 1 microgram per kg | 87 | 17 | 1810 | 30 | 41 | 20 | 1800 | 94 | 28 | 1740 | approximately the same reactivity | 100 | Essentially all of these antibodies (in GC-5) also bind 2,3,7,8-TCDD | 100 | up to 97% | – | –
Clc1cc2c(cc1Cl)Oc1c(cc(Cl)c(Cl)c1Cl)O2 [1,2,3,7,8-Cl5 Dibenzo-p-Dioxin] | – | – | – | – | – | – | – | – | – | – | – | – | 97 | – | 99 | – | toxicities comparable to that of TCDD | –
Clc1cc2oc3cc(Cl)c(Cl)cc3c2cc1Cl [2,3,7,8-Cl4 Dibenzofuran, 2,3,7,8-tetrachlorodibenzofuran] | – | – | – | – | – | – | – | – | – | – | – | approximately the same reactivity | 92 | – | 25 | – | – | constant
